Experimental data published in patent US20070004039A1, “Immortalized hepatocytes” (Multicell Technologies, Inc., priority 2003, published 2007).
Where two headings read alike, the source gives them in different places.

Legend:
[1] = tested on: Fa2N-4 cells; assay: α-GST release toxicity test in Fa2N-4 cells (FIG. 22); details: 72-hour exposure, up to 100 μM
[2] = tested on: Fa2N-4 cells and primary human hepatocytes; assay: Toxicity by LDH release and resazurin reduction, Fa2N-4 cells compared with primary human hepatocytes; details: Same or Different toxicity response in the two cell types
[3] = tested on: UGT1A; assay: Invader assay UGT1A mRNA induction in Fa2N-4 cells; assay type: cell-based, human; details: 48 hours
[4] = tested on: CYP3A4
[5] = tested on: CYP1A2
[6] = tested on: CYP1A2; details: cited from earlier work
[7] = tested on: Fa2N-4 cells and primary human hepatocytes
[8] = tested on: albumin; assay: Effect of dexamethasone on albumin secretion by Fa2N-4 cells (ELISA); assay type: cell-based, human; details: Fa2N-4 (passage 32); dexamethasone 1.0 μM; 48 hrs
[9] = tested on: CYP1A2; assay: CYP1A2 activity induction in Fa2N-4 cells (phenacetin, LC/MS/MS); assay type: cell-based, human
[10] = tested on: CYP3A4; details: human
[11] = tested on: MDR1 (P-glycoprotein); assay: Invader assay MDR1 mRNA induction in Fa2N-4 cells; assay type: cell-based, human; details: 48 hours
[12] = tested on: CYP2B6; details: cited from earlier work
[13] = tested on: CYP3A4; details: human; remark: listed apart in the source
[14] = activity based on 7-ethoxy-4-trifluoromethylcoumarin O-dealkylation
[15] = activity based on S-mephenytoin N-demethylation

SMILES: Cc1ccc2cc3c(ccc4ccccc43)c3c2c1CC3 [3-Methylcholanthrene]
- release of α-GST into the medium [1]: caused a loss of membrane integrity
- Cellular Response (Fa2N-4 cells compared with primary human hepatocytes) [2]: Same

SMILES: O=c1cc(-c2ccccc2)oc2ccc3ccccc3c12 [BNF, β-naphthoflavone]
- UGT1A mRNA induction [3]: 2 fold
- expression of CYP3A4 protein (immunoblot) [4]: does not induce CYP3A4 protein expression
- Fa2N-4 cells Fold-increase, CYP1A2 [5]: 1.5 fold
- Human hepatocytes Average induction, CYP1A2 [6]: 13 fold
- Human hepatocytes Median induction, CYP1A2 [6]: 8.4 fold
- Human hepatocytes induction (range), CYP1A2 [6]: (2-56) fold
- Primary cells Fold-increase, CYP1A2 ([6]; hepatocytes): 13 fold

SMILES: c1ccc2c(c1)cc1ccc3cccc4ccc2c1c34 [Benzo[a]pyrene]
- Cellular Response (Fa2N-4 cells compared with primary human hepatocytes) [7]: Different
- Non-toxic Compound / Toxic Compound [7]: Toxic
- sensitivity of Fa2N-4 cells relative to primary hepatocytes [7]: more sensitive than primary hepatocytes

SMILES: NC(=O)N1c2ccccc2C=Cc2ccccc21 [Carbamazepine]
- Cellular Response (Fa2N-4 cells compared with primary human hepatocytes) [7]: Same
- Non-toxic Compound / Toxic Compound [7]: Carbamazepine

SMILES: CC1(COc2ccc(CC3SC(=O)NC3=O)cc2)CCCCC1 (stereo not shown) [Ciglitazone]
- Cellular Response (Fa2N-4 cells compared with primary human hepatocytes) [7]: Same
- Non-toxic Compound / Toxic Compound [7]: Ciglitazone

SMILES: C[C@@H]1C[C@H]2[C@@H]3CCC4=CC(=O)C=C[C@]4(C)[C@@]3(F)[C@@H](O)C[C@]2(C)[C@@]1(O)C(=O)CO [Dexamethasone]
- Albumin [8]: 100.0 µg/mL

SMILES: O=C1Nc2ccc(Cl)cc2[C@@](C#CC2CC2)(C(F)(F)F)O1 [Efavirenz]
- Cellular Response (Fa2N-4 cells compared with primary human hepatocytes) [7]: Same
- Non-toxic Compound / Toxic Compound [7]: Efavirenz

SMILES: NC(=O)OCC(COC(N)=O)c1ccccc1 [Felbamate]
- Cellular Response (Fa2N-4 cells compared with primary human hepatocytes) [7]: Same
- Non-toxic Compound / Toxic Compound [7]: Felbamate

SMILES: Cc1c(OCC(F)(F)F)ccnc1C[S+]([O-])c1nc2ccccc2[nH]1 (stereo not shown) [Lansoprazole]
- Cellular Response (Fa2N-4 cells compared with primary human hepatocytes) [7]: Same
- Non-toxic Compound / Toxic Compound [7]: Lansoprazole

SMILES: CC1=CC(=O)c2ccccc2C1=O [Menadione]
- Cellular Response (Fa2N-4 cells compared with primary human hepatocytes) [7]: Different
- Non-toxic Compound / Toxic Compound [7]: Toxic
- sensitivity of Fa2N-4 cells relative to primary hepatocytes [7]: less sensitive

SMILES: CN(Cc1cnc2nc(N)nc(N)c2n1)c1ccc(C(=O)N[C@@H](CCC(=O)O)C(=O)O)cc1 [Methotrexate]
- Cellular Response (Fa2N-4 cells compared with primary human hepatocytes) [7]: Same
- Non-toxic Compound / Toxic Compound [7]: Methotrexate

SMILES: COc1ccc2[nH]c([S+]([O-])Cc3ncc(C)c(OC)c3C)nc2c1 (stereo not shown) [Omeprazole]
- induction of CYP1A2 activity ([9]; Fa2N-4, 6-well plates, 100 μM omeprazole): marked induction
- CYP1A2 activity induction over control ([9]; Fa2N-4, 6-, 12-, 24- and 96-well format, all cases): at least 9 fold
- Fa2N-4 Average induction, CYP1A2 ([9]; Fa2N-4 cells): 20 fold
- Fa2N-4 induction (range), CYP1A2 ([9]; Fa2N-4 cells): (9.3-29) fold
- Cellular Response (Fa2N-4 cells compared with primary human hepatocytes) [7]: Same
- Non-toxic Compound / Toxic Compound [7]: Omeprazole

SMILES: CCC1(c2ccccc2)C(=O)NC(=O)NC1=O [Phenobarbital]
- production of the 6-β testosterone metabolite [10]: weaker CYP3A4 inducers
- Cellular Response (Fa2N-4 cells compared with primary human hepatocytes) [2]: Same

SMILES: O=C1NC(=O)C(c2ccccc2)(c2ccccc2)N1 [Phenytoin]
- Cellular Response (Fa2N-4 cells compared with primary human hepatocytes) [7]: Same
- Non-toxic Compound / Toxic Compound [7]: Phenytoin

SMILES: CCCN(CCC)S(=O)(=O)c1ccc(C(=O)O)cc1 [Probenicid]
- Cellular Response (Fa2N-4 cells compared with primary human hepatocytes) [7]: Same
- Non-toxic Compound / Toxic Compound [7]: Probenicid

SMILES: CO[C@H]1/C=C/O[C@@]2(C)Oc3c(C)c(O)c4c(O)c(c(/C=N/N5CCN(C)CC5)c(O)c4c3C2=O)NC(=O)/C(C)=C\C=C\[C@H](C)[C@H](O)[C@@H](C)[C@@H](O)[C@@H](C)[C@H](OC(C)=O)[C@@H]1C [Rifampin]
- MDR1 (P-glycoprotein) mRNA induction [11]: 3 fold
- Cellular Response (Fa2N-4 cells compared with primary human hepatocytes) [7]: Same
- Human hepatocytes Average induction, CYP2B6 [12, 14]: 4.1 fold
- Human hepatocytes Median induction, CYP2B6 [12, 14]: 2.9 fold
- Human hepatocytes induction (range), CYP2B6 [12, 14]: ≤ 14 fold
- Human hepatocytes Average induction, CYP2B6 [12, 15]: 13 fold
- Human hepatocytes Median induction, CYP2B6 [12, 15]: 8.5 fold
- Human hepatocytes induction (range), CYP2B6 [12, 15]: ≤ 71 fold

SMILES: C=C(C)[C@H]1Cc2c(ccc3c2O[C@@H]2COc4cc(OC)c(OC)cc4[C@@H]2C3=O)O1 [Rotenone]
- Cellular Response (Fa2N-4 cells compared with primary human hepatocytes) [2]: Same

SMILES: Cc1c(C)c2c(c(C)c1O)CCC(C)(COc1ccc(CC3SC(=O)NC3=O)cc1)O2 (stereo not shown) [Troglitazone]
- Cellular Response (Fa2N-4 cells compared with primary human hepatocytes) [7]: Different
- Non-toxic Compound / Toxic Compound [7]: Toxic
- sensitivity of Fa2N-4 cells relative to primary hepatocytes [7]: more sensitive than primary hepatocytes

SMILES: CO[C@H]1C[C@H](O[C@H]2[C@H](C)[C@@H](O[C@@H]3O[C@H](C)C[C@H](N(C)C)[C@H]3OC(C)=O)[C@@H](C)C[C@@]3(CO3)C(=O)[C@H](C)[C@@H](OC(C)=O)[C@@H](C)[C@@H](C)OC(=O)[C@@H]2C)O[C@@H](C)[C@@H]1OC(C)=O [Troleandomycin]
- Cellular Response (Fa2N-4 cells compared with primary human hepatocytes) [7]: Same
- Non-toxic Compound / Toxic Compound [7]: Troleandomycin

SMILES: Clc1ccccc1C(c1ccccc1)(c1ccccc1)n1ccnc1 [clotrimazole]
- CYP3A4 activity induction (FIG. 20) [13]: CYP3A4 induction is masked by its inhibitory effect
